Reference: PMC6321055, “Synthesis of Novel ent-Kaurane-Type Diterpenoid Derivatives Effective for Highly Aggressive Tumor Cells” (Molecules, 2018)

Tests used:
SNU-1040 = experiment: MTT cytotoxicity assay, SNU-1040; conditions: Homo sapiens, 24 h, read-out: In vitro cytotoxic activity IC50, SNU-1040
Procedure: (§1) Cells were purchased from the Wuxi Innovatbio Medicine Technology Co. LTD (Wuxi, China) and were maintained at 37 °C under the atmosphere of 5% CO2. The cells of human non-small lung cancer (H292) and colon cancer cell line (SNU-1040) cells were cultured in RPMI-medium and others (rat myoblasts and HepG2) were cultured in dulbecco′s modified eagle medium (DMEM). 10% fetal bovine serum (Tianhang Biotechnology Co., Ltd., Zhejiang, China) and 1% antibiotics (100 U/mL penicillin and 100 mg/mL streptomycin) was supplemented. Cells are inoculated in 96-well plate and cultured for 24 h. After attached to the culture bottle wall cells were divided cells into three groups, (1) control group; (2) positive control group; (3) experiment group. […] After 24 h, 10% MTT was added and cells were culture for 3.5 h. Then the culture medium was discard and 150 µL DMSO was added. Eventually, after incubation for 10 min by shaking in the dark at room temperature, the absorbance was detected at 490 nm using a microplate reader, and the difference was analyzed by prism 7 software.

in vitro = conditions: rat
Procedure: as §1

NSCLC-H292 = experiment: MTT cytotoxicity assay, NSCLC-H292; conditions: Homo sapiens, 24 h, read-out: In vitro cytotoxic activity IC50, NSCLC-H292
Procedure: as §1

HepG2 = experiment: MTT cytotoxicity assay, HepG2; conditions: for IC50: Homo sapiens, HepG2, 24 h, read-out: In vitro cytotoxic activity IC50, HepG2; for SI (selective index, IC50 of normal cells/IC50 of tumor cells): IC50 L6 / IC50 HepG2
Procedure: as §1

[1] = MTT cytotoxicity assay, L6 normal cells; conditions: rat, L6 rat myotube cells (normal cells)
Procedure: as §1

SMILES | melting point [°C] | IC50 at 24 h (in vitro) [µM] | IC50 (SNU-1040) [µM] | IC50 (NSCLC-H292) [µM] | IC50 (HepG2) [µM] | SI (selective index, IC50 of normal cells/IC50 of tumor cells) (HepG2) | IC50 at 24 h [1] [µM]
C=C1C[C@]2(C(=O)OCC)C[C@H]1C(=O)C[C@@H]2C1CC(C)(C)C=CC1=O (some centres unmarked) [Compound 13] | 112 to 114.6 | > 10 | 1.41 | 4.44 | > 10 | – | –
C=C1C(O)[C@]2(C(=O)OCC)C[C@H]1C(=O)C[C@@H]2C1CC(C)(C)C=CC1=O (some centres unmarked) [Compound 15] | – | > 10 | 3.13 | 1.99 | 1.81 | – | –
C=C1C(=O)[C@]2(C(=O)OCC)C[C@H]1C(=O)C[C@@H]2C1CC(C)(C)C=CC1=O (some centres unmarked) [Compound 16] | – | > 10 | 2.44 | 1.69 | 0.33 | 161.06 | –
C=C1C(=O)[C@]2(C(=O)OCC)C[C@H]1C(=O)C[C@H]2C1CC(C)(C)C=CC1=O (some centres unmarked) [Compound 18] | – | > 10 | 3.01 | 1.35 | 0.56 | – | –
C=C1C(=O)[C@]23C[C@H]1CC[C@H]2[C@@]12CO[C@]3(O)[C@@H](O)[C@@H]1C(C)(C)C=CC2=O [Eriocalyxin B, reference compound] | – | – | 1.54 | 7.11 | 2.12 | – | > 10

Further lines, with some results ahead:

melting point [°C] | IC50 at 24 h (in vitro) [µM] | SMILES | IC50 (SNU-1040) [µM] | IC50 (NSCLC-H292) [µM] | IC50 (HepG2) [µM] | SI (selective index, IC50 of normal cells/IC50 of tumor cells) (HepG2) | IC50 at 24 h [1] [µM]
103.2 to 105.8 | > 10 | C=C1C[C@]2(C(=O)OCC)C[C@H]1C(=O)C[C@H]2C1CC(C)(C)C=CC1=O (some centres unmarked) [Compound 14] | 1.72 | 2.95 | > 10 | – | –
– | > 10 | C=C1C(O)[C@]2(C(=O)OCC)C[C@H]1C(=O)C[C@H]2C1CC(C)(C)C=CC1=O (some centres unmarked) [Compound 17] | 2.82 | 0.99 | 1.58 | 47.80 | –
